# “And” between values parts separate entries of the source, which are not always exact repeats. Equal entries are not always repeated.
# Tests used:
# [1] = system: PORko-G cell line (POR-knockout HCT-116); assay: Monolayer clonogenic assay (with monolayer ABM fit); format: cell-based, human
# Experimental: (§1) Cells (4.8 x 10^5 cells) were seeded with 2 ml culture medium into 6-well plates and left to attach for 2 h in a humidified 37°C incubator. Compounds were then prepared in culture medium and added in a 500 µl volume to each well. Plates were returned to a humidified 37°C incubator for the duration of the drug exposure (4 h). Aerobic and anoxic experiments were performed as described above. Plates were then removed from the anaerobic chamber and processed alongside the aerobic cultures. Cells were detached from monolayer by trypsinisation and plated at serial dilutions in 6-well plates. Cells were left to grow in a standard 37°C incubator for 10 days until the controls formed discrete colonies comprised of at least 50 cells. Colonies were visualized by staining with methylene blue (2 g/L in 50% aqueous ethanol) for 30 min. The number of colonies with at least 50 cells was manually counted to determine the plating efficiency. The surviving fraction was determined as the ratio of plating efficiency of treated cells to that of the controls.
# (§2) An agent-based model (ABM) employing a one-dimensional approximation for monolayers was used to develop a cellular PK model, as described in further detail elsewhere ([Hong et al., 2018b]; [Mao et al., 2018]). The mathematical framework assumes that solute concentrations in the medium are dependent only on the depth (on the z coordinate) and not the lateral position (x,y) so that all cells are exposed to the same concentration of nutrients and drugs within the monolayer culture. Moreover, all cells have the same rate of metabolism and volume growth at any instance with variability allowed in cell volume, rate of cell division and cell death. Monolayer ABM simulations were performed on a desktop Windows PC (Intel core I7 processor) from a Qt (Qt Company, https://www.qt.io/) graphical user interface passing parameters to a DLL built with Fortran95. The monolayer ABM uses a finite difference method to solve reaction-diffusion equations for each compound (N) in the medium and cells. Parameters for the cellular uptake and metabolism were fitted to the concentration-time profiles of CP-506 and its metabolites in monolayer cultures of POR-R cells using a linear (first order) cell transport and metabolism model. Terms for the extracellular instability of CP-506 and its metabolites were set at their respective values in media stability studies, and media diffusion coefficients were estimated from the support membrane diffusion coefficients described below. Experimental data describing the kinetics of CP-506 uptake under aerobic conditions was fitted by adjusting the permeability coefficients kin and kout for each compound. These values were fixed for anoxic experiments to allow for parameter estimation of the rate of intracellular CP-506 metabolism (kmet0) as well as the intracellular/extracellular partitioning ratio (kin and kout) and metabolic instability (kmet0) for its cytotoxic metabolites.
# (§3) The spheroid ABM is described in further detail elsewhere ([Hong et al., 2018b]; [Mao et al., 2018]). The model employs two 3D grids and two solvers, a coarse grid represents the culture medium and is embedded with a much finer grid that represents the spheroid in a small cubic region at the bottom of the well. The spheroid grows in a specified volume and depth of unstirred medium containing dissolved oxygen. The geometry of the model is lattice-based, in which cells occupy cubic sites on a regular 3D lattice and grow in volume at a rate dependent on the local oxygen concentration. Autonomous cell mobility and cell-cell forces are not simulated. Cell motion occurs only as a result of cell division. Cells divide when the volume reaches a pre-set value (Vdiv) and the resultant daughter cell occupies an adjacent empty lattice site. […] The oxygen concentration at the air-medium boundary is defined by the gas phase of the culture environment. […]
# [2] = system: POR-R cell line (POR-overexpressing HCT-116); assay: as above; format: cell-based, human; conditions: for k d M: kill probability rate constant in monolayer cultures: fitted by monolayer ABM to clonogenic survival under anoxia, set to zero for the prodrug, same kd assumed for metabolites
# Experimental: as §1, §2, §3
# [3] = anoxia, estimated from clonogenic survival by ABM
SMILES,"Target k met0: rate constant for the maximum rate of metabolism in PORko-G cells under anoxia [1, 3] [min⁻¹]",k d M: kill probability rate constant in monolayer cultures [2],"Target k met0: rate constant for the maximum rate of metabolism in PORko-G cells under anoxia ([1]; anoxia, footnote d: assumed equivalent to the measured metabolites or from published PR-104A estimates)","IC50 ([1]; Homo sapiens, HCT-116, PORko-G monolayer, 4 h exposure, <1 ppm O2, read-out: Clonogenic IC50 under anoxia) [µM]","Differential in anoxic sensitivity between PORko-G and POR-R cell lines ([1]; monolayer clonogenic endpoint, anoxia)","IC50 ([2]; Homo sapiens, HCT-116, POR-R monolayer, 4 h exposure, <1 ppm O2, read-out: Clonogenic IC50 under anoxia) [µM]"
"CCN1CCN(C(=O)c2cc(N(CCBr)CCOS(C)(=O)=O)c(S(C)(=O)=O)cc2N)CC1 [CP-506M, 2-((4-amino-5-(4-ethylpiperazine-1-carbonyl)-2-(methylsulfonyl)phenyl)(2-bromoethyl)amino)ethyl methanesulfonate]",0.1,0.01,–,–,–,–
"CCN1CCN(C(=O)c2cc(N(CCBr)CCOS(C)(=O)=O)c(S(C)(=O)=O)cc2NO)CC1 [CP-506H, 2-((2-bromoethyl)(5-(4-ethylpiperazine-1-carbonyl)-4-(hydroxyamino)-2-(methylsulfonyl)phenyl)amino)ethyl methanesulfonate]",0.09,0.01,–,–,–,–
"CCN1CCN(C(=O)c2cc(N(CCCl)CCCl)c(S(C)(=O)=O)cc2N)CC1 [CP-506M-Cl2, (2-Amino-5-(bis(2-chloroethyl)amino)-4-(methylsulfonyl)phenyl)(4-ethylpiperazin-1-yl)methanone]",–,0.01,0.1 ^d min^−1,–,–,–
"CCN1CCN(C(=O)c2cc(N(CCBr)CCOS(C)(=O)=O)c(S(C)(=O)=O)cc2[N+](=O)[O-])CC1 [CP-506, 2-[(2-bromoethyl)-5-[(4-ethyl-1-piperazinyl)carbonyl]-2-(methylsulfonyl)-4-nitroanilino]ethyl methanesulfonate]",0.0019,0,–,17.1 ± 3.4,22 fold and 20 fold,0.8 ± 0.3

# From publication PMC8861431, “Tissue Pharmacokinetic Properties and Bystander Potential of Hypoxia-Activated Prodrug CP-506 by Agent-Based Modelling” (Frontiers in Pharmacology, 2022)
